Series [1] relates to ZIKV. The series can be described thus: ZIKV infectivity by semisolid overlay plaque assay after pre-treatment of A549 and U87 MG cells. Format: cell-based, Zika virus. Particulars: for reduction in ZIKV titer: CA 250 nM 1 h pre-treatment, MOI 1.0, 3 d.
Series [2] relates to ZIKV. The series can be described thus: Secreted NS1 (sNS1) ELISA, ZIKV-infected A549 cells. Format: cell-based, Zika virus. Particulars: Zika virus, 24 h pre-treatment, MOI 1.0, 2 d. As for the experimental part:
Error bars represent SD among 2 biological replicates.
Cultured A549 cells were treated with various concentrations of CA or PF-429242 for 24 h before being washed with PBS and inoculated with ZIKV (ZIKV strain VR 1843, Puerto Rico, 2015; ATCC) at MOI 1.0 for 1 h. Following the removal of the inoculum, cells were incubated in fresh media for 2 d before the supernatant was collected, clarified, and secreted NS1 protein abundance was measured by an ELISA kit (BioFront Technologies) according to the manufacturer's instructions. Curve fitting was performed in Igor Pro (WaveMetrics) using a hyperbolic fit algorithm (FIG. 4; upper and middle plots) and IC50 and TI values obtained. IC50 and TI values were also obtained for CA via plaque assay (PFU; FIG. 4, lower plot). FIG. 4 (upper plot) is an ED50 curve for the PF inhibitor based on the detection of secreted Non-Structural protein 1 (sNS1), secreted viral biomarker. sNS1 was detected using an Elisa test (commercially available). FIG. 4 (middle plot) is an ED50 curve for CA based on the detection of secreted Non-Structural protein 1 (sNS1), secreted viral biomarker. sNS1 was detected using an Elisa test (commercially available).
(In general: ELISA stands for enzyme-linked immunosorbent assay.)

The subject of the next series is ZIKV replicon. The series can be described thus: ZIKV replicon luminescence assay in Huh-7.5 replicon-containing cells. The conditions noted are these: Huh-7.5 ZIKV replicon cells, 48 h. It counts as cell-based, Zika virus. The method, then: Error bars represent SD among 3 biological replicates.
Cultured Huh-7.5.1 cells and Huh-7.5 ZIKV replicon-containing cells (Xie 2016) were treated with various concentrations of CA or putative ZIKV replication inhibitor NITD-008 (Deng 2016) for 48 h. Cells were then washed with PBS and ViviRen™ Live Cell Substrate (Promega) was added to a final concentration of 30 μM. Following incubation for 2 min at room temperature, luminescence was measured. Curve fitting was performed in Igor Pro (WaveMetrics) using a sigmoidal fit algorithm (FIG. 5).
(A replicon is a self-replicating genome or part of one, used to study replication in cells.)

Series [3] has as its system ZIKV. The series can be described thus: Time-of-addition study of ZIKV infection in A549 cells (plaque assay). It counts as cell-based, Zika virus. The conditions noted are these: 250 nM CA; full lifecycle, pre-replication, post-replication; A549, MOI 1.0. As for the experimental part: Error bars represent SEM among 3 biological replicates. Significance was calculated by a 2-tailed unpaired Student's t-test. *, p<0.05.
Cultured A549 cells were inoculated with ZIKV for 1 h at MOI 1.0, and maintained for 2 d under different experimental conditions. For “Full lifecycle” 250 nM CA was added following the inoculation and maintained in the medium for 2 d; for “Pre-replication” 250 nM CA was added following the inoculation and maintained in the medium for 6 h, after which the cells were washed with PBS and the medium was changed; and for “Post-replication” 250 nM CA was added to the culture medium 12 hours post infection (hpi) and maintained until 24 hpi, after which the cells were washed with PBS and the medium was changed.

Series [4] deals with ZIKV. The series can be described thus: ZIKV viral dsRNA imaging (Cellomics ArrayScan VTI) in A549 cells. Format: cell-based, Zika virus. Particulars: 15 μM, 1 h pre-treatment, MOI 1, 48 h.
For the next series, the system named is DENV-2, DENV-3, DENV-4. The series can be described thus: DENV-2, -3, -4 dsRNA imaging in Huh7.5.1 and U87 cells. Format: cell-based, dengue virus. The conditions noted are these: Huh 7.5.1 cells and U87 cells, FIG. 9. The method, then: Cultured Huh7.5.1 cells (left plots) or U87 cells (right plots) were treated with the indicated concentrations of CA (1=Mock, 2=0 M, 3=1 M, 4=5 M, 5=10 M, 6=20 µM) or PF-429242 (7=15 M) for 1 h before being washed with PBS and infected with DENV-2, DENV-3, or DENV-4 at MOI 1.0 for 48 h. Cells were labeled for viral dsRNA with […] then imaged and quantified using the Cellomics ArrayScan™ VTI.

Series [5] relates to human coronavirus 229E (HCoV-229E). The series can be described thus: HCoV-229E intracellular viral dsRNA assay in Huh-7 cells. It counts as cell-based. Particulars: Huh-7, 48 h. The method, then: An IF-based assay was used to monitor viral dsRNA in infected cells.
CA pre-treatment: Cladoniamide A was added to non-infected Huh-7 cells (3 h). Cells were washed with PBS and inoculated with human coronavirus 229E (HCoV-229E) for 3 hours, then HCoV-229E was removed and the cells were washed with PBS once more. 48 hours post-infection, the cells were fixed and the intra-cellular viral dsRNA was quantified (HCS CX5 system). CA added post-infection: Huh-7 cells were inoculated with HCoV-229E for 3 hours. Then HCoV-229E was removed and cells were washed with PBS. Cladoniamide A was added to these infected cells. 48 hours post-infection, the cells were fixed and the intra-cellular viral dsRNA was quantified (HCS CX5 system).

The test system of a further series is SARS-CoV-2. The series can be described thus: SARS-CoV-2 intracellular viral RNA and nucleocapsid protein in Caco-2 cells. Format: cell-based.
For a further series, the system named is brain organoids. The series can be described thus: CellTiter Glo 3D cell viability assay in brain organoids. It counts as cell-based. The conditions noted are these: 1 μM. The method, then:
FIG. 19 is a plot showing toxicity results for brain organoids treated with 1 μM CA.
(§1) FIG. 18 is a plot showing the anti-ZIKV activity of cladoniamide A (incubation with 1 μM CA for 72 hours; 2 biological replicates, each with 4 organoids/well) using four brain organoid systems. There was a greater than 4-log reduction in extracellular ZIKV titer when treated with CA. […] FIGS. 20 and 21 show plots showing the anti-ZIKV activity of CA and CC (incubation with 10 μM CA or CC for 69 hours, MOI 1; 4 technical replicates as there were 4 organoids/[…]).
Background: ATP-based viability assays read luminescence as a measure of living cells.

The test system of series [6] is ZIKV. The experiment in a line: NS1 and dsRNA in ZIKV-infected brain organoids. It counts as cell-based, Zika virus. The conditions noted are these: 10 μM, 69 hours, MOI 1. The method, then:
FIG. 17 is a schematic showing the general method 20 used in Example 6. Referring to FIG. 17, following growth of the brain organoids in STEMdiff™ media 22 (4 organoids/well), the media was aspirated 24. Then, 500 μL ZIKV at the desired MOI in fresh media was added 26 and the brain organoids incubated at 37° C. for 3 hours with gentle shaking 28. The brain organoids were then washed with 2×1 mL PBS 30, and fresh media and CA or cladoniamide C (CC) added to the desired concentration 32 prior to incubation for the desired time at 37° C. 34. The supernatant was collected and frozen at −86° C. 36 prior to analysis and the brain organoids transferred to an Eppendorf with paraformaldehyde for electron microscopy 38.
as §1

The structures appear in SMILES notation. Where two headings read alike, the source gives them in different places.

Consider one compound from patent US12643899B2, “Antiviral agents, uses thereof and methods for their preparation” (The University of British Columbia, priority 2020, dated 2026).

In general, IC50 refers to the midpoint of a concentration-inhibition curve. As to `COc1c2n(c3ccccc13)[C@]1(O)C(=O)N(C)C(=O)[C@]1(O)c1c-2[nH]c2ccc(Cl)cc12` [CA, (11S,15R)-7-chloro-11,15-dihydroxy-23-methoxy-13-methyl-3,13,16-triazahexacyclo[14.7.0.0^2,10.0^4,9.0^11,15.0^17,22]tricosa-1(23),2(10),4(9),5,7,17,19,21-octaene-12,14-dione], the “reduction in ZIKV titer” value in the series with ZIKV [1] (A549 cells) and in the series on ZIKV [1] (U87 MG cells) was “greater than 4 log” in each case. In addition, the “inhibition of production of infectious ZIKV virions” value in the series on ZIKV [1] (at 50 nm (so in the source), FIG. 3) is given as “dramatically inhibited”. For the same compound, the IC50 with ZIKV [2] was found to be 80 nM. For the same compound, the ZIKV replication inhibition result with ZIKV replicon was “not a ZIKV replication inhibitor”. Also, the “step of ZIKV infection inhibited” value in the series on ZIKV [3] was “dual inhibitor of ZIKV infection targeting the entry and maturation steps”. Further, the “activity against ZIKV (viral dsRNA)” value with ZIKV [4] is given as “good activity”. Besides, the “activity against Dengue virus 2, 3 and 4” value in the series with DENV-2, DENV-3, DENV-4 is reported as “broad-spectrum anti-flaviviral activity”. In addition, the EC50 was determined as 15 nM in series [5]; 5 nM in the series on SARS-CoV-2 (Severe acute respiratory syndrome coronavirus 2, Caco-2, read-out: ED50, intracellular SARS-CoV-2 nucleocapsid protein, Caco-2 cells, 3 hours pre-treatment); 2 nM in the series with SARS-CoV-2 (Severe acute respiratory syndrome coronavirus 2, Caco-2, read-out: ED50, intracellular viral RNA, Caco-2 cells, 3 hours pre-treatment). Further, the “toxicity to brain organoids” value in the series on brain organoids is “not toxic”. Further, the “anti-ZIKV activity in brain organoids (NS1, dsRNA)” value in the series on ZIKV [6] is listed as “showed anti-ZIKV activity”.
